The supplement of paper PMC10733146

What was measured:
Assay in all cases: viability relative to DMSO control (fraction); higher = less drug effect (more viable cells)
Conditions in all cases: 48 h
Venetoclax = compound: CC1(C)CCC(CN2CCN(c3ccc(C(=O)NS(=O)(=O)c4ccc(NCC5CCOCC5)c([N+](=O)[O-])c4)c(Oc4cnc5[nH]ccc5c4)c3)CC2)=C(c2ccc(Cl)cc2)C1 [Venetoclax]
Outline: (§1)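 Viability was measured as CellTiter-Glo luminescence relative to the median of 16 inner DMSO wells. Primary mononuclear tumour cells, fresh or cryopreserved, were Ficoll-isolated from blood or bone marrow or taken from processed lymph node. They were seeded at 4 × 10^4 cells per well into 384-well plates holding pre-plated compounds at five concentrations, one well each, and kept in RPMI-1640 with penicillin/streptomycin, L-glutamine and human serum at 37 °C and 5% CO2 for 48 h.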

I-BET-762 = compound: CCNC(=O)C[C@@H]1N=C(c2ccc(Cl)cc2)c2cc(OC)ccc2-n2c(C)nnc21 [I-BET-762]
Outline: as §1

CPI-169 = compound: CCS(=O)(=O)N1CCC([C@@H](C)n2c(C)c(C(=O)NCc3c(OC)cc(C)[nH]c3=O)c3ccccc32)CC1 [CPI-169]
Outline: as §1

Roscovitine = compound: CC[C@H](CO)Nc1nc(NCc2ccccc2)c2ncn(C(C)C)c2n1 [Roscovitine]
Outline: as §1

Vindesine = compound: CC[C@]1(O)C[C@@H]2CN(CCc3c([nH]c4ccccc34)[C@@](C(=O)OC)(c3cc4c(cc3OC)N(C)[C@H]3[C@@](O)(C(N)=O)[C@H](O)[C@]5(CC)C=CCN6CC[C@]43[C@@H]65)C2)C1 [Vindesine]
Outline: as §1

Everolimus = compound: CO[C@H]1C[C@@H]2CC[C@@H](C)[C@@](O)(O2)C(=O)C(=O)N2CCCC[C@H]2C(=O)O[C@H]([C@H](C)C[C@@H]2CC[C@@H](OCCO)[C@H](OC)C2)CC(=O)[C@H](C)/C=C(\C)[C@@H](O)[C@@H](OC)C(=O)[C@H](C)C[C@H](C)/C=C/C=C/C=C/1C [Everolimus]
Outline: as §1

Idasanutlin (RS7388) = compound: COc1cc(C(=O)O)ccc1NC(=O)[C@@H]1N[C@@H](CC(C)(C)C)[C@](C#N)(c2ccc(Cl)cc2F)[C@H]1c1cccc(Cl)c1F [Idasanutlin (RS7388)]
Outline: as §1

[1] = compound: C[C@H]1C[C@@H](n2c(Nc3ccc(OC(F)(F)F)cc3)nc3cc(CCC(=O)O)ccc32)CC(C)(C)C1
Outline: as §1

Bendamustine = compound: Cn1c(CCCC(=O)O)nc2cc(N(CCCl)CCCl)ccc21 [Bendamustine]
Outline: as §1

[2] = compound: O=C(NO)c1cccc(C(=O)NCCc2ccccc2)c1
Outline: as §1

[3] = compound: O=C(Nc1ccc2[nH]nc(-c3ccncc3)c2c1)[C@@H]1CCN(CC(=O)N2CCN(c3ccc(-c4ncccn4)cc3)CC2)C1
Outline: as §1

Thalidomide = compound: O=C1CCC(N2C(=O)c3ccccc3C2=O)C(=O)N1 [Thalidomide]
Outline: as §1

Entospletinib = compound: c1cn2cc(-c3ccc4cn[nH]c4c3)nc(Nc3ccc(N4CCOCC4)cc3)c2n1 [Entospletinib]
Outline: as §1

primary AML patient cells (S002)
viability (Venetoclax; 0.00064 µM): 0.979
viability (Venetoclax; 0.0032 µM): 0.955
viability (Venetoclax; 0.016 µM): 0.678
viability (Venetoclax; 0.08 µM): 0.667
viability (Venetoclax; 0.4 µM): 0.537
viability (I-BET-762; 0.008 µM): 0.876
viability (I-BET-762; 0.04 µM): 0.899
viability (I-BET-762; 0.2 µM): 0.662
viability (I-BET-762; 1 µM): 0.412
viability (I-BET-762; 5 µM): 0.352
viability (CPI-169; 0.024 µM): 1.12
viability (CPI-169; 0.12 µM): 0.923
viability (CPI-169; 0.6 µM): 0.962
viability (CPI-169; 3 µM): 0.967
viability (CPI-169; 15 µM): 0.785
viability (Roscovitine; 0.032 µM): 0.867
viability (Roscovitine; 0.16 µM): 0.907
viability (Roscovitine; 0.8 µM): 0.899
viability (Roscovitine; 4 µM): 0.896
viability (Roscovitine; 20 µM): 0.466
viability (Vindesine; 0.016 µM): 1.16
viability (Vindesine; 0.08 µM): 1.12
viability (Vindesine; 0.4 µM): 1.08
viability (Vindesine; 2 µM): 0.965
viability (Vindesine; 10 µM): 0.884
viability (Everolimus; 0.0032 µM): 0.867
viability (Everolimus; 0.016 µM): 0.955
viability (Everolimus; 0.08 µM): 0.815
viability (Everolimus; 0.4 µM): 0.813
viability (Everolimus; 2 µM): 0.757
viability (Idasanutlin (RS7388); 0.032 µM): 0.502
viability (Idasanutlin (RS7388); 0.16 µM): 0.416
viability (Idasanutlin (RS7388); 0.8 µM): 0.298
viability (Idasanutlin (RS7388); 4 µM): 0.239
viability (Idasanutlin (RS7388); 20 µM): 0.209
viability ([1]; 0.024 µM): 0.913
viability ([1]; 0.12 µM): 0.893
viability ([1]; 0.6 µM): 0.859
viability ([1]; 3 µM): 0.876
viability ([1]; 15 µM): 0.832
viability (Bendamustine; 0.032 µM): 1.11
viability (Bendamustine; 0.16 µM): 1.2
viability (Bendamustine; 0.8 µM): 1.14
viability (Bendamustine; 4 µM): 1.09
viability (Bendamustine; 20 µM): 0.724
viability ([2]; 0.024 µM): 0.965
viability ([2]; 0.12 µM): 1.46
viability ([2]; 0.6 µM): 1.09
viability ([2]; 3 µM): 1.04
viability ([2]; 15 µM): 1.13
viability ([3]; 0.008 µM): 0.618
viability ([3]; 0.04 µM): 0.484
viability ([3]; 0.2 µM): 0.426
viability ([3]; 1 µM): 0.394
viability ([3]; 5 µM): 0.39
viability (Thalidomide; 0.032 µM): 1.03
viability (Thalidomide; 0.16 µM): 0.935
viability (Thalidomide; 0.8 µM): 0.93
viability (Thalidomide; 4 µM): 0.927
viability (Thalidomide; 20 µM): 0.912
viability (Entospletinib; 0.024 µM): 1.03
viability (Entospletinib; 0.12 µM): 1.03
viability (Entospletinib; 0.6 µM): 0.895
viability (Entospletinib; 3 µM): 1.08
viability (Entospletinib; 15 µM): 1.07

primary BL patient cells (S005)
viability (Venetoclax; 0.00064 µM): 0.989
viability (Venetoclax; 0.0032 µM): 0.904
viability (Venetoclax; 0.016 µM): 0.944
viability (Venetoclax; 0.08 µM): 0.982
viability (Venetoclax; 0.4 µM): 0.994
viability (I-BET-762; 0.008 µM): 1.08
viability (I-BET-762; 0.04 µM): 0.956
viability (I-BET-762; 0.2 µM): 0.889
viability (I-BET-762; 1 µM): 0.822
viability (I-BET-762; 5 µM): 0.768
viability (CPI-169; 0.024 µM): 1.04
viability (CPI-169; 0.12 µM): 1.03
viability (CPI-169; 0.6 µM): 1.12
viability (CPI-169; 3 µM): 1.07
viability (CPI-169; 15 µM): 1.1
viability (Roscovitine; 0.032 µM): 1.01
viability (Roscovitine; 0.16 µM): 1.56
viability (Roscovitine; 0.8 µM): 1.01
viability (Roscovitine; 4 µM): 1.6
viability (Roscovitine; 20 µM): 1.37
viability (Vindesine; 0.016 µM): 0.812
viability (Vindesine; 0.08 µM): 0.859
viability (Vindesine; 0.4 µM): 0.903
viability (Vindesine; 2 µM): 0.775
viability (Vindesine; 10 µM): 0.892
viability (Everolimus; 0.0032 µM): 0.819
viability (Everolimus; 0.016 µM): 0.837
viability (Everolimus; 0.08 µM): 0.787
viability (Everolimus; 0.4 µM): 0.848
viability (Everolimus; 2 µM): 0.8
viability (Idasanutlin (RS7388); 0.032 µM): 1.28
viability (Idasanutlin (RS7388); 0.16 µM): 1.01
viability (Idasanutlin (RS7388); 0.8 µM): 1.09
viability (Idasanutlin (RS7388); 4 µM): 1.31
viability (Idasanutlin (RS7388); 20 µM): 1
viability ([1]; 0.024 µM): 1.38
viability ([1]; 0.12 µM): 1.01
viability ([1]; 0.6 µM): 0.993
viability ([1]; 3 µM): 1.45
viability ([1]; 15 µM): 0.977
viability (Bendamustine; 0.032 µM): 1.01
viability (Bendamustine; 0.16 µM): 1.06
viability (Bendamustine; 0.8 µM): 1.02
viability (Bendamustine; 4 µM): 1.01
viability (Bendamustine; 20 µM): 1.07
viability ([2]; 0.024 µM): 1.08
viability ([2]; 0.12 µM): 1
viability ([2]; 0.6 µM): 1.04
viability ([2]; 3 µM): 1.04
viability ([2]; 15 µM): 1.03
viability ([3]; 0.008 µM): 1.02
viability ([3]; 0.04 µM): 1.08
viability ([3]; 0.2 µM): 1.02
viability ([3]; 1 µM): 0.993
viability ([3]; 5 µM): 0.935
viability (Thalidomide; 0.032 µM): 0.924
viability (Thalidomide; 0.16 µM): 0.966
viability (Thalidomide; 0.8 µM): 0.953
viability (Thalidomide; 4 µM): 0.98
viability (Thalidomide; 20 µM): 0.919
viability (Entospletinib; 0.024 µM): 1.01
viability (Entospletinib; 0.12 µM): 0.996
viability (Entospletinib; 0.6 µM): 1.06
viability (Entospletinib; 3 µM): 1.08
viability (Entospletinib; 15 µM): 0.986
